Assay results from PubChem BioAssay (NCI).
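48-hour exposure; five concentrations; linearly interpolated endpoints. GI50: concentration for 50% inhibition of growth. TGI is the concentration that stops growth completely.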

Key:
Experiment in all cases: NCI tumour cell line growth inhibition, 48 h
[1] = tested on: HCT-15 colon
[2] = tested on: SK-MEL-2 melanoma
[3] = tested on: CAKI-1 renal
[4] = tested on: TK-10 renal
[5] = tested on: HOP-62 NSCLC
[6] = tested on: OVCAR-8 ovarian
[7] = tested on: NCI-H23 lung
[8] = tested on: SF-268 CNS
[9] = tested on: RPMI-8226 leukemia
[10] = tested on: 786-0 renal
[11] = tested on: SK-OV-3 ovarian
[12] = tested on: K-562 leukemia
[13] = tested on: M14 melanoma
[14] = tested on: SK-MEL-28 melanoma
[15] = tested on: HT29 colon
[16] = tested on: OVCAR-3 ovarian
[17] = tested on: DU-145 prostate
[18] = tested on: HCC-2998 colon
[19] = tested on: CCRF-CEM leukemia
[20] = tested on: MALME-3M melanoma
[21] = tested on: ACHN renal
[22] = tested on: SNB-75 CNS
[23] = tested on: COLO 205 colon
[24] = tested on: BT-549 breast
[25] = tested on: NCI-H226 lung
[26] = tested on: SF-539 CNS
[27] = tested on: SN12C renal
[28] = tested on: OVCAR-5 ovarian
[29] = tested on: HL-60(TB) leukemia
[30] = tested on: PC-3 prostate
[31] = tested on: SF-295 CNS
[32] = tested on: MDA-MB-435
[33] = tested on: A549 NSCLC
[34] = tested on: LOX IMVI melanoma
[35] = tested on: NCI/ADR-RES ovarian
[36] = tested on: MOLT-4 leukemia
[37] = tested on: A498 renal
[38] = tested on: EKVX NSCLC
[39] = tested on: MDA-MB-231 breast
[40] = tested on: RXF 393 renal
[41] = tested on: NCI-H522 lung
[42] = tested on: HOP-92 NSCLC
[43] = tested on: OVCAR-4 ovarian
[44] = tested on: UO-31 renal
[45] = tested on: SK-MEL-5 melanoma
[46] = tested on: UACC-257 melanoma
[47] = tested on: UACC-62 melanoma
[48] = tested on: T-47D breast
[49] = tested on: SW-620 colon
[50] = tested on: NCI-H460 lung
[51] = tested on: MCF7 breast
[52] = tested on: KM12 colon
[53] = tested on: HCT-116 colon
[54] = tested on: U251 CNS
[55] = tested on: SNB-19 CNS
[56] = tested on: IGROV1 ovarian
[57] = tested on: HS 578T breast

With `Cc1cc(Cl)ccc1OCc1nn2c(CCCCc3nnc4sc(COc5ccc(Cl)cc5C)nn34)nnc2s1` the GI50 [1] was 47.1 µM, the TGI [1] was over 100 µM and the GI50 [2] was over 63.4 µM. It also gave a TGI [2] of over 89.5 µM, a GI50 [3] of 4.52 µM and a TGI [3] of over 55.3 µM. It also gave a GI50 [4] of 26.2 µM, a TGI [4] of 74.2 µM and a GI50 [5] of 32.2 µM. It also gave a TGI [5] of 58.5 µM, a GI50 [6] of 8.99 µM and a TGI [6] of over 83.1 µM. For the same molecule, the GI50 [7] was 29.8 µM, the TGI [7] was over 100 µM and the GI50 [8] was 23 µM. The TGI [8] was over 76.7 µM, the GI50 [9] was 18.9 µM and the TGI [9] was over 100 µM. For the same molecule, the GI50 [10] was 26.7 µM, the TGI [10] was 55.5 µM and the GI50 [11] was 35.4 µM. For the same molecule, the TGI [11] was 73.1 µM, the GI50 [12] was over 73.2 µM and the TGI [12] was over 100 µM. It also gave a GI50 [13] of 45.9 µM, a TGI [13] of over 100 µM and a GI50 [14] of 52.7 µM. The TGI [14] was over 100 µM, the GI50 [15] was 43.6 µM and the TGI [15] was over 100 µM. The GI50 [16] was 7.99 µM, the TGI [16] was 72.2 µM and the GI50 [17] was 13.9 µM. It also gave a TGI [17] of over 100 µM, a GI50 [18] of 30.2 µM and a TGI [18] of over 100 µM. For the same molecule, the GI50 [19] was 33.7 µM, the TGI [19] was over 61.6 µM and the GI50 [20] was 29.2 µM. For the same molecule, the TGI [20] was over 86.1 µM, the GI50 [21] was 34.1 µM and the TGI [21] was over 100 µM. It also gave a GI50 [22] of 13.8 µM, a TGI [22] of 51 µM and a GI50 [23] of 43.5 µM. It also gave a TGI [23] of over 100 µM, a GI50 [24] of 11.6 µM and a TGI [24] of 51.8 µM. For the same molecule, the GI50 [25] was 21.8 µM, the TGI [25] was 74.5 µM and the TGI [26] was 1.47 µM. It also gave a GI50 [27] of 37.8 µM, a TGI [27] of over 100 µM and a GI50 [28] of over 100 µM. For the same molecule, the TGI [28] was over 100 µM, the GI50 [29] was over 94.2 µM and the TGI [29] was over 100 µM. It also gave a GI50 [30] of 22.4 µM, a TGI [30] of over 80.1 µM and a GI50 [31] of 8.28 µM. For the same molecule, the TGI [31] was 76.2 µM, the GI50 [32] was 7.12 µM and the TGI [32] was over 57.8 µM. The GI50 [33] was 27 µM, the TGI [33] was over 100 µM and the GI50 [34] was 28.2 µM. It also gave a TGI [34] of over 100 µM, a GI50 [35] of 23 µM and a TGI [35] of 74 µM. It also gave a GI50 [36] of 25.5 µM, a TGI [36] of over 100 µM and a GI50 [37] of 1.67 µM. It also gave a TGI [37] of 8.21 µM, a GI50 [38] of 11.3 µM and a TGI [38] of over 76.2 µM. It also gave a GI50 [39] of 17.7 µM, a TGI [39] of over 78.6 µM and a GI50 [40] of 18 µM. It also gave a TGI [40] of 62.8 µM, a GI50 [41] of 20.8 µM and a TGI [41] of 61.7 µM. The GI50 [42] was 34.2 µM, the TGI [42] was over 68.8 µM and the GI50 [43] was 21.2 µM. The TGI [43] was over 69.6 µM, the GI50 [44] was 14.5 µM and the TGI [44] was over 100 µM. For the same molecule, the GI50 [45] was 1.68 µM, the TGI [45] was 9.75 µM and the GI50 [46] was 8.41 µM. The TGI [46] was over 100 µM, the GI50 [47] was 22.6 µM and the TGI [47] was over 100 µM. The GI50 [48] was 14.6 µM, the TGI [48] was 57.2 µM and the GI50 [49] was 3.48 µM. The TGI [49] was over 41 µM, the GI50 [50] was 24.7 µM and the TGI [50] was over 93.6 µM. The GI50 [51] was 21.9 µM, the TGI [51] was over 73.2 µM and the GI50 [52] was 17.2 µM. For the same molecule, the TGI [52] was over 100 µM, the GI50 [53] was 32.2 µM and the TGI [53] was over 81 µM. It also gave a GI50 [54] of 25.3 µM, a TGI [54] of over 74.7 µM and a GI50 [55] of 48.9 µM. For the same molecule, the TGI [55] was over 80.4 µM, the GI50 [56] was 28.4 µM and the TGI [56] was over 100 µM. The GI50 [57] was 0.544 µM.
